Measurements reported in patent US10011616B2, “Boron-containing small molecules as antiprotozoal1 agents” (MMV MEDICINES FOR MALARIA VENTURE, priority 2015, dated 2018).

Legend:
[1] = system: W2 strain of Plasmodium falciparum; assay: In vitro activity against W2 strain of Plasmodium falciparum (YOYO-1 flow cytometry); assay type: cell-based; conditions: Erythrocyte, 48 h, P. falciparum W2 in human erythrocytes, 2 d, growth inhibition, read-out: IC50: 1 Org. Growth P. falciparum W2, 2 d (LPS_00451)
Procedure: In Vitro Activity Against Plasmodium falciparum
b) Against W2 Strain of Plasmodium falciparum
W2 strain P. falciparum parasites were cultured in human erythrocytes and RPMI-1640 culture media with either 10% human serum or 0.5% Albumax serum substitute under 3% O2, 5% CO2, and 92% N2. Parasites synchronized to ring stage by treatments with 5% D-sorbitol were cultured with serial dilutions of benzoxaboroles from 5 to 10 mM stocks in 96 well microplate cultures including 200 μL of media/well, 2% hematocrit, and 1% parasitemia. At the completion of 48 h incubations, when untreated cultures contained new rings, parasites were fixed with 2% formaldehyde for 48 h, and 5 μL aliquots were transferred to another 96 well plate containing 150 μL/well of staining solution (100 mM NH4Cl, 0.1% Triton X-100, and 1 nM YOYO-1 in PBS). Parasites per erythrocyte were then determined by flow cytometry from plots of forward scatter against fluorescence (excitation 488 nm, emission 520 nm) using a FacSort flow cytometer (Beckton Dickinson) equipped with an AMS Loader (Cytek Development). All values were normalized to percent control activity, and IC50s were calculated using the Prism 3.0 program (GRAPHPAD Software). Goodness of fit was assessed by R^2 values, and meaningful dose-response curves yielded R^2 values >0.95.

[2] = system: 3D7 strain of Plasmodium falciparum; assay: In vitro activity against 3D7 strain of Plasmodium falciparum ([3H]-hypoxanthine incorporation assay); assay type: cell-based; conditions: Erythrocyte, 48 h, P. falciparum 3D7 in human erythrocytes, 2 d, growth inhibition, read-out: IC50: 1 Org. Growth P. falciparum 3D7, 2 d (LPS_00570)
Procedure: In Vitro Activity Against Plasmodium falciparum a) Against 3D7 Strain of Plasmodium falciparum Inhibition of 3D7 strain parasites was assessed using the [^3H]-hypoxanthine incorporation assay (Desjardins, et al. Antimicrob. Agents Chemother. 1979, 16, 710-718). Briefly, parasites were cultured in human erythrocytes (from the Spanish Red Cross blood bank) using RPMI-1640 culture media (Gibco) supplemented with 0.5% Albumax II (Invitrogen), 2% D-sucrose (Sigma-Aldrich), 0.3% glutamine (Sigma-Aldrich), and 5 mM hypoxanthine (Sigma-Aldrich). Cultures were maintained at 37° C. at an atmosphere of 5% O2, 5% CO2, and […]. To assess inhibition, asynchronous parasite cultures with 0.5% parasitemia and 2% hematocrit were exposed to 3-fold serial dilutions of test compounds for 24 hours in 96 well plate cultures (Costar #3894). After 24 hours, [^3H]-hypoxanthine was added, plates were incubated for an additional 24 hours, and parasites were harvested on glass fiber filters (Wallac #1450-421) using a cell harvester 96 (TOMTEC, Perkin Elmer). Filters were dried on scintillator sheets (MeltiLex A, PerkinElmer #1450-441) to determine incorporation of [^3H]-hypoxanthine. Radioactivity was measured using a microbeta counter (Perkin Elmer). Data are normalized using the incorporation of the positive control (infected erythrocytes without drug). IC50 values were determined using Excel and Grafit 5 software. Values were determined from at least three independent experiments, and standard deviations were calculated.

Structure (SMILES) | IC50 [1] [nM] | IC50 [2] [nM]
Cc1c(Oc2cnc(C(=O)N3CCC(C)(O)C3)cn2)ccc2c1B(O)OC2 (racemic) [Example 40, (3-hydroxy-3-methylpyrrolidin-1-yl) (5-((1-hydroxy-7-methyl-1,3-dihydrobenzo[c][1,2]oxaborol-6-yl)oxy)pyrazin-2-yl)methanone] | 139 | 314
Cc1c(Oc2cnc(C(=O)N[C@@H]3CCC[C@@H]3O)cn2)ccc2c1B(O)OC2 (relative stereo) [Example 49, 5-((1-hydroxy-7-methyl-1,3-dihydrobenzo[c][1,2]oxaborol-6-yl)oxy)-N-(cis-2-hydroxycyclopentyl)pyrazine-2-carboxamide] | 292 | 181
Cc1c(Oc2cnc(C(=O)NCCO)cn2)ccc2c1B(O)OC2 [Example 1, 5-((1-hydroxy-7-methyl-1,3-dihydrobenzo[c][1,2]oxaborol-6-yl)oxy)-N-(2-hydroxyethyl)pyrazine-2-carboxamide] | 372 | 1080
COCCNC(=O)c1cnc(Oc2ccc3c(c2C)B(O)OC3)cn1 [Example 2, 5-(1-hydroxy-7-methyl-1,3-dihydrobenzo[c][1,2]oxaborol-6-yloxy)-N-(2-methoxyethyl)pyrazine-2-carboxamide] | 788 | 644
Cc1c(Oc2cnc(C(=O)NC(C)(C)CO)cn2)ccc2c1B(O)OC2 [Example 3, N-(1-hydroxy-2-methylpropan-2-yl)-5-(1-hydroxy-7-methyl-1,3-dihydrobenzo[c][1,2]oxaborol-6-yloxy)pyrazine-2-carboxamide] | 290 | 425
Cc1c(Oc2cnc(C(=O)NCC(C)(C)O)cn2)ccc2c1B(O)OC2 [Example 4, N-(2-hydroxy-2-methylpropyl)-5-(1-hydroxy-7-methyl-1,3-dihydrobenzo[c][1,2]oxaborol-6-yloxy)pyrazine-2-carboxamide] | 334 | 554
Cc1c(Oc2cnc(C(=O)NC(C)CO)cn2)ccc2c1B(O)OC2 (stereo not shown) [Example 5, 5-(1-hydroxy-7-methyl-1,3-dihydrobenzo[c][1,2]oxaborol-6-yloxy)-N-(1-hydroxypropan-2-yl)pyrazine-2-carboxamide] | 92.3 | 317
Cc1c(Oc2cnc(C(=O)N(CCO)CCO)cn2)ccc2c1B(O)OC2 [Example 6, 5-(1-hydroxy-7-methyl-1,3-dihydrobenzo[c][1,2]oxaborol-6-yloxy)-N,N-bis(2-hydroxyethyl)pyrazine-2-carboxamide] | 328 | 184
Cc1c(Oc2cnc(C(=O)NC(CO)C(C)C)cn2)ccc2c1B(O)OC2 (stereo not shown) [Example 7, N-(1-hydroxy-3-methylbutan-2-yl)-5-(1-hydroxy-7-methyl-1,3-dihydrobenzo[c][1,2]oxaborol-6-yloxy)pyrazine-2-carboxamide] | 115 | 96.5
Cc1c(Oc2cnc(C(=O)NC(CO)CC(C)C)cn2)ccc2c1B(O)OC2 (stereo not shown) [Example 8, N-(1-hydroxy-4-methylpentan-2-yl)-5-((1-hydroxy-7-methyl-1,3-dihydrobenzo[c][1,2]oxaborol-6-yl)oxy)pyrazine-2-carboxamide] | 930 | 937
Cc1c(Oc2cnc(C(=O)NCC(C)O)cn2)ccc2c1B(O)OC2 (stereo not shown) [Example 9, 5-(1-hydroxy-7-methyl-1,3-dihydrobenzo[c][1,2]oxaborol-6-yloxy)-N-(2-hydroxypropyl)pyrazine-2-carboxamide] | 1280 | 1100
Cc1c(Oc2cnc(C(=O)N(C)CCO)cn2)ccc2c1B(O)OC2 [Example 10, 5-(1-hydroxy-7-methyl-1,3-dihydrobenzo[c][1,2]oxaborol-6-yloxy)-N-(2-hydroxyethyl)-N-methylpyrazine-2-carboxamide] | 262 | 437
Cc1c(Oc2cnc(C(=O)N[C@H](C)CO)cn2)ccc2c1B(O)OC2 [Example 11] | 944 | 848
Cc1c(Oc2cnc(C(=O)N[C@@H](C)CO)cn2)ccc2c1B(O)OC2 [Example 12, (S)-5-(1-hydroxy-7-methyl-1,3-dihydrobenzo[c][1,2]oxaborol-6-yloxy)-N-(1-hydroxypropan-2-yl)pyrazine-2-carboxamide] | 844 | 808
CCC[C@@H](CO)NC(=O)c1cnc(Oc2ccc3c(c2C)B(O)OC3)cn1 [Example 13, (S)-5-(1-hydroxy-7-methyl-1,3-dihydrobenzo[c][1,2]oxaborol-6-yloxy)-N-(1-hydroxypentan-2-yl)pyrazine-2-carboxamide] | 297 | 715
CCC[C@H](CO)NC(=O)c1cnc(Oc2ccc3c(c2C)B(O)OC3)cn1 [Example 14, (R)-5-(1-hydroxy-7-methyl-1,3-dihydrobenzo[c][1,2]oxaborol-6-yloxy)-N-(1-hydroxypentan-2-yl)pyrazine-2-carboxamide] | 161 | 201
Cc1c(Oc2cnc(C(=O)NC(CO)Cc3ccccc3)cn2)ccc2c1B(O)OC2 (stereo not shown) [Example 15, N-(1-hydroxy-3-phenylpropan-2-yl)-5-(1-hydroxy-7-methyl-1,3-dihydrobenzo[c][1,2]oxaborol-6-yloxy)pyrazine-2-carboxamide] | 297 | 407
Cc1c(Oc2cnc(C(=O)NC(CO)c3ccccc3)cn2)ccc2c1B(O)OC2 (stereo not shown) [Example 16, N-(2-hydroxy-1-phenylethyl)-5-(1-hydroxy-7-methyl-1,3-dihydrobenzo[c][1,2]oxaborol-6-yloxy)pyrazine-2-carboxamide] | 223 | 380
Cc1c(Oc2cnc(C(=O)NC3(CO)CC3)cn2)ccc2c1B(O)OC2 [Example 17, 5-((1-hydroxy-7-methyl-1,3-dihydrobenzo[c][1,2]oxaborol-6-yl)oxy)-N-(1-(hydroxymethyl)cyclopropyl)pyrazine-2-carboxamide] | 2010 | 1500
CCC(CO)NC(=O)c1cnc(Oc2ccc3c(c2C)B(O)OC3)cn1 (stereo not shown) [Example 18, 5-(1-hydroxy-7-methyl-1,3-dihydrobenzo[c][1,2]oxaborol-6-yloxy)-N-(1-hydroxybutan-2-yl)pyrazine-2-carboxamide] | 622 | 725
CC[C@H](CO)NC(=O)c1cnc(Oc2ccc3c(c2C)B(O)OC3)cn1 [Example 19, (R)-5-(1-hydroxy-7-methyl-1,3-dihydrobenzo[c][1,2]oxaborol-6-yloxy)-N-(1-hydroxybutan-2-yl)pyrazine-2-carboxamide] | 136 | 403
C=CC(CO)NC(=O)c1cnc(Oc2ccc3c(c2C)B(O)OC3)cn1 (stereo not shown) [Example 20, 5-(1-hydroxy-7-methyl-1,3-dihydrobenzo[c][1,2]oxaborol-6-yloxy)-N-(1-hydroxybut-3-en-2-yl)pyrazine-2-carboxamide] | 535 | 786
CC[C@@H](CO)NC(=O)c1cnc(Oc2ccc3c(c2C)B(O)OC3)cn1 [Example 21, (S)-5-(1-hydroxy-7-methyl-1,3-dihydrobenzo[c][1,2]oxaborol-6-yloxy)-N-(1-hydroxybutan-2-yl)pyrazine-2-carboxamide] | 704 | 801
Cc1c(Oc2cnc(C(=O)NC(CO)C3CC3)cn2)ccc2c1B(O)OC2 (stereo not shown) [Example 22, N-(1-cyclopropyl-2-hydroxyethyl)-5-(1-hydroxy-7-methyl-1,3-dihydrobenzo[c][1,2]oxaborol-6-yloxy)pyrazine-2-carboxamide] | 458 | 1150
Cc1c(Oc2cnc(C(=O)N[C@H](CO)C(C)C)cn2)ccc2c1B(O)OC2 [Example 23, (S)—N-(1-hydroxy-3-methylbutan-2-yl)-5-(1-hydroxy-7-methyl-1,3-dihydrobenzo[c][1,2]oxaborol-6-yloxy)pyrazine-2-carboxamide] | 774 | 1990
Cc1c(Oc2cnc(C(=O)N[C@@H](CO)C3CC3)cn2)ccc2c1B(O)OC2 [Example 24, (R)—N-(1-cyclopropyl-2-hydroethyl)-5-(1-hydroxy-7-methyl-1,3-dihydrobenzo[c][1,2]oxaborol-6-yloxy)pyrazine-2-carboxamide] | 492 | 587
